From ChEMBL document CHEMBL3885861, “Open TG-GATES”

Species on record: Rattus norvegicus
Assay: Open TG-GATES - Regimen: Single
Type: toxicity, organism-based, Sprague-Dawley
Parameters: regimen Single, gender Male, age 6 weeks
Settings: in vivo, po, route gavage; for gamma-GTP / ALP / AST / CRE / DBIL / GLC / IP / K / LDH / Na / PL / RALB / TBIL / TC / TP: tissue Plasma; for Bas / Eos / Lym / MCHC / MCV / Mono / Neu / RBC / Ret / WBC: tissue Blood; for KIDNEY_L / KIDNEY_R / KIDNEY_TOTAL: tissue Kidney; for LIVER: tissue Liver
[1] = 200 mg/kg, 3 h, dose level Middle
[2] = 200 mg/kg, 6 h, dose level Middle
[3] = 200 mg/kg, 9 h, dose level Middle
[4] = 200 mg/kg, 24 h, dose level Middle

CS(=O)(=O)O.Cc1ccc(NC(=O)c2ccc(CN3CCN(C)CC3)cc2)cc1Nc1nccc(-c2cccnc2)n1 [IMATINIB MESYLATE]
gamma-GTP (60 mg/kg, 24 h, dose level Low): 0.9 IU/L | Bas [1]: 0% | Eos [1]: 0.6% | Lym [1]: 76.2% | MCHC [1]: 32.5% | MCV [1]: 63 fL | Mono [1]: 2.4% | Neu [1]: 19.8% | RBC [1]: 602.4 x10_4/ul | Ret [1]: 10.1% | WBC [1]: 94 x10_2/uL | KIDNEY_L [1]: 0.8 g | KIDNEY_R [1]: 0.9 g | KIDNEY_TOTAL [1]: 1.7 g | LIVER [1]: 8.5 g | ALP [1]: 1473.2 IU/L | AST [1]: 86.2 IU/L | CRE [1]: 0.2 mg/dL | DBIL [1]: 0.014 mg/dL | GLC [1]: 185 mg/dL | IP [1]: 8.5 mg/dL | K [1]: 3.9 meq/L | LDH [1]: 224.6 IU/L | Na [1]: 142.7 meq/L | PL [1]: 131.8 mg/dL | RALB [1]: 4 g/dL | TBIL [1]: 0.042 mg/dL | TC [1]: 75.8 mg/dL | TP [1]: 5.4 g/dL | gamma-GTP [1]: 0.8 IU/L | Bas [2]: 0% | Eos [2]: 0% | Lym [2]: 75.8% | MCHC [2]: 32.7% | MCV [2]: 63 fL | Mono [2]: 1.8% | Neu [2]: 21.6% | RBC [2]: 605.6 x10_4/ul | Ret [2]: 9.4% | WBC [2]: 92.8 x10_2/uL | KIDNEY_L [2]: 0.9 g | KIDNEY_R [2]: 0.9 g | KIDNEY_TOTAL [2]: 1.8 g | LIVER [2]: 8.3 g | ALP [2]: 1397.4 IU/L | AST [2]: 83.8 IU/L | CRE [2]: 0.2 mg/dL | DBIL [2]: 0.014 mg/dL | GLC [2]: 184.2 mg/dL | IP [2]: 9.1 mg/dL | K [2]: 3.8 meq/L | LDH [2]: 187.4 IU/L | Na [2]: 139.7 meq/L | PL [2]: 147.6 mg/dL | RALB [2]: 4 g/dL | TBIL [2]: 0.046 mg/dL | TC [2]: 81.6 mg/dL | TP [2]: 5.4 g/dL | gamma-GTP [2]: 0.8 IU/L | Bas [3]: 0% | Eos [3]: 0% | Lym [3]: 78.6% | MCHC [3]: 33.1% | MCV [3]: 64.1 fL | Mono [3]: 1% | Neu [3]: 19.2% | RBC [3]: 566.4 x10_4/ul | Ret [3]: 10.1% | KIDNEY_L [3]: 0.9 g | KIDNEY_R [3]: 0.9 g | KIDNEY_TOTAL [3]: 1.8 g | LIVER [3]: 7.8 g | ALP [3]: 1450.6 IU/L | AST [3]: 80.6 IU/L | CRE [3]: 0.2 mg/dL | DBIL [3]: 0.016 mg/dL | GLC [3]: 180 mg/dL | IP [3]: 9 mg/dL | K [3]: 4 meq/L | LDH [3]: 197.8 IU/L | Na [3]: 139.8 meq/L | PL [3]: 145.8 mg/dL | RALB [3]: 4.2 g/dL | TBIL [3]: 0.062 mg/dL | TC [3]: 82.6 mg/dL | TP [3]: 5.5 g/dL | gamma-GTP [3]: 0.9 IU/L | Bas [4]: 0% | Eos [4]: 0.6% | Lym [4]: 81% | MCHC [4]: 33% | MCV [4]: 63.9 fL | Mono [4]: 1.2% | Neu [4]: 16.2% | RBC [4]: 583.2 x10_4/ul | Ret [4]: 7.9% | WBC [4]: 97.7 x10_2/uL | KIDNEY_L [4]: 0.9 g | KIDNEY_R [4]: 0.9 g | KIDNEY_TOTAL [4]: 1.8 g | LIVER [4]: 8.6 g | ALP [4]: 1768.2 IU/L | AST [4]: 98.4 IU/L | CRE [4]: 0.2 mg/dL | DBIL [4]: 0.008 mg/dL | GLC [4]: 180.4 mg/dL | IP [4]: 7.5 mg/dL | K [4]: 4 meq/L | LDH [4]: 181.8 IU/L | Na [4]: 143 meq/L | PL [4]: 148.4 mg/dL | RALB [4]: 4.1 g/dL | TBIL [4]: 0.042 mg/dL | TC [4]: 79 mg/dL | TP [4]: 5.8 g/dL
